This is an account of results in patent US8697694B2, “Substituted pyridine and pyrimidine derivatives and their use in treating viral infections” (priority 2008, dated 2014).

One experiment deals with HCV replicon cells. The experiment in a line: Cell-based HCV replicon assay (replicon RNA level by real time PCR, Taqman). Conditions: Hepatitis C virus, 72 h, HCV replicon cells, harvested day 3, replicon RNA by real time PCR; given as number; read-out: EC90 (μM) range. The procedure: Assays Cell-Based HCV Replicon Assay
To measure cell-based anti-HCV activity of the compounds of the present invention, replicon cells were seeded at 5000 cells/well in 96-well collagen I-coated Nunc plates in the presence of the compound of the invention. Various concentrations of a compound of the invention, typically in 10 serial 2-fold dilutions, were added to the assay mixture, the starting concentration of the compound ranging from 25 μM to 1 μM. The final concentration of DMSO was 0.5%, fetal bovine serum was 10%, in the assay media. Cells were harvested on day 3 by the addition of 1× cell lysis buffer (Ambion cat #8721). The replicon RNA level was measured using real time PCR (Taqman assay). The amplicon was located in 5B. The PCR primers were: 5B.2F, ATGGACAGGCGCCCTGA (SEQ. ID NO. 1); 5B.2R, […] (SEQ. ID NO. 2); the probe sequence was FAM-labeled CACGCCATGCGCTGCGG (SEQ. ID NO. 3). GAPDH RNA was used as endogenous control and was amplified in the same reaction as NS5B (multiplex PCR) using primers and VIC-labeled probe recommended by the manufacturer (PE Applied Biosystem). The real-time RT-PCR reactions were run on ABI PRISM 7900HT Sequence Detection System using the following program: 48′C for 30 min, 95° C. for 10 min, 40 cycles of 95° C. for 15 sec, 60° C. for 1 min. The ΔCT values (CT5B-CTGAPDH) were plotted against the concentration of test compound and fitted to the sigmoid dose-response model using GraphPad PRISM software. EC50 was defined as the concentration of inhibitor necessary to achieve ΔCT=1 over the projected baseline; EC90 the concentration necessary to achieve ΔCT=3.2 over the baseline. Alternatively, to quantitate the absolute amount of replicon RNA, a standard curve was established by including serially diluted T7 transcripts of replicon RNA in the Taqman assay. All Taqman reagents were from PE Applied Biosystems. Such an assay procedure was described in detail in e.g. Malcolm et al., Antimicrobial Agents and Chemotherapy 50: 1013-1020 (2006).
HCV Replicon assay data for compounds of the invention that were tested was obtained using the above method. Calculated EC90 values are reported for each compound in Table I as a falling within the following ranges: […]
For orientation: EC90 means the concentration at which the effect reaches the 90% level. As to `Cc1nc(NCC(F)(F)F)nc(N[C@@H]2C[C@H](COC(=O)N3CCCC3)[C@@H](O)[C@H]2O)c1-c1nc2ccccc2s1` [Example 64], the concentration for an effect of 90% (EC90) was found to be 0.8 µM. For `CCCOc1cc2cc(-c3c(C)nc(NCC(C)(C)C)nc3N[C@@H]3C[C@H](CO)[C@@H](O)[C@H]3O)oc2cn1` [Example 61], the EC90 is more than 1 µM.

Still in this experiment, the particulars now being: Hepatitis C virus, 72 h, HCV replicon cells, harvested day 3, replicon RNA by real time PCR; reported as range class; read-out: EC90 (μM) range.
For the molecule `CC(=O)OCCNc1nc(Cl)c(-c2nc3ccccc3s2)c(N[C@@H]2C[C@H](CO)[C@@H](O)[C@H]2O)n1` [Example 209], the 90% effect concentration (EC90) was less than 0.5 µM. The same measure, in the same setting: the value for `CCOc1ccc2nc(-c3c(Cl)nc(N)nc3N[C@@H]3C[C@H](CO)[C@H]4OC(C)(C)O[C@H]43)sc2c1` [Example 195] was less than 0.5 µM; that for `Nc1nc(Cl)c(-c2cc3cc(F)ccc3o2)c(N[C@@H]2C[C@H](CO)[C@@H](O)[C@H]2O)n1` [Example 164] was more than 5 µM; that for `Nc1nc(Cl)c(-c2ccco2)c(N[C@@H]2C[C@H](CO)[C@@H](O)[C@H]2O)n1` [Example 152] was more than 5 µM. Same read-out and setting: the value for `OC[C@H]1C[C@@H](Nc2ncnc(Cl)c2-c2nc3ccccc3s2)[C@H](O)[C@@H]1O` [Example 118] was more than 5 µM. For `Nc1nc(Cl)c(-c2nc3ccc(Cl)cc3s2)c(N[C@@H]2C[C@H](CO)[C@@H](O)[C@H]2O)n1` [Example 188], the concentration for an effect of 90% (EC90) was more than 5 µM. Consider `Nc1nc(N[C@@H]2C[C@H](CO)[C@@H](O)[C@H]2O)c(-c2ccccn2)c(-c2ccccn2)n1` [Example 162], for which the EC90 was more than 5 µM. In the case of `Cc1cc2cc(-c3c(Cl)nc(N)nc3N[C@@H]3C[C@H](CO)[C@@H](O)[C@H]3O)oc2cn1` [Example 306], the EC90 was less than 0.5 µM. Same read-out and setting: the value for `Nc1nc(Cl)c(-c2ccc3c(c2)OCO3)c(N[C@@H]2C[C@H](CO)[C@@H](O)[C@H]2O)n1` [Example 151] was more than 5 µM; that for `Cc1nc(NCCO)nc(N[C@@H]2C[C@H](CO)[C@@H](O)[C@H]2O)c1-c1nc2ccccc2s1` [Example 210] was less than 0.5 µM. On the same count and under the same terms, as for `NC(=O)c1ccc2cc(-c3c(Cl)nc(N)nc3N[C@@H]3C[C@H](CO)[C@@H](O)[C@H]3O)oc2c1` [Example 178], the figure is more than 5 µM; as for `COc1cc2cc(-c3c(Cl)nc(NCC(F)(F)F)nc3N[C@@H]3C[C@H](CO)[C@@H](O)[C@H]3O)oc2cn1` [Example 22], less than 0.5 µM.

The same experiment, now with this note: Hepatitis C virus, 72 h, HCV replicon cells, harvested on day 3, replicon RNA by real time PCR; calculated EC90 reported as range class; read-out: EC90 (μM) range.
As to `CCc1cc2cc(-c3c(C)nc(NCC(F)(F)F)nc3N[C@@H]3C[C@H](CO)[C@@H](O)[C@H]3O)oc2cn1` [Example 517], the concentration for an effect of 90% (EC90) is less than 0.5 µM. Turning to `COCCNc1nc(C)c(-c2cc3cc(C(F)(F)F)ncc3o2)c(N[C@@H]2C[C@H](CO)[C@@H](O)[C@H]2O)n1` [Example 139], the EC90 was 0.5 to 5 µM.

For the molecule `COc1cc(CNc2nc(C)c(-c3nc4ccccc4s3)c(N[C@@H]3C[C@H](CO)[C@H]4OC(C)(C)O[C@H]43)n2)cc(OC)c1` [Example 500], the EC90 is less than 0.5 µM. As to `Cc1ccccc1CNc1nc(C)c(-c2nc3ccccc3s2)c(N[C@@H]2C[C@H](CO)[C@H]3OC(C)(C)O[C@H]32)n1` [Example 487], the EC90 is more than 5 µM. Still for that read-out and setting: the value for `Cc1nc(NCCNC(=O)OCc2ccccc2)nc(N[C@@H]2C[C@H](CO)[C@H]3OC(C)(C)O[C@H]32)c1-c1nc2ccccc2s1` [Example 253] was 0.5 to 5 µM; that for `CCc1cc2cc(-c3c(C)nc(NCc4cc(C)on4)nc3N[C@@H]3C[C@H](CO)[C@H]4OC(C)(C)O[C@H]43)oc2cn1` [Example 702] was less than 0.5 µM; that for `Cc1nc(NCCN2CCOCC2)nc(N[C@@H]2C[C@H](CO)[C@H]3OC(C)(C)O[C@H]32)c1-c1nc2ccccc2s1` [Example 248] was less than 0.5 µM. The same measure, in the same setting: the value for `CCc1cc2cc(-c3c(C)nc(NCc4ccco4)nc3N[C@@H]3C[C@H](CO)[C@@H](O)[C@H]3O)oc2cn1` [Example 705] was less than 0.5 µM; that for `Cc1nc(NCc2cccs2)nc(N[C@@H]2CCCC2=O)c1-c1nc2ccccc2s1` (racemic) [Example 338] was less than 0.5 µM; that for `Cc1nc(NCc2cccs2)nc(N[C@@H]2CC[C@@H](O)[C@H]2O)c1-c1nc2ccccc2s1` [Example 336] was less than 0.5 µM. For `CO[C@H](C)CNc1nc(C)c(-c2nc3ccccc3s2)c(N[C@@H]2C[C@H](CO)[C@@H](O)[C@H]2O)n1` [Example 231], the EC90 was less than 0.5 µM.

Regarding `CCCNc1nc(Cl)c(-c2nc3ccccc3s2)c(N[C@@H]2C[C@H](CO)[C@@H](O)[C@H]2O)n1` [Example 419], the EC90 is less than 0.5 µM. The same measure, in the same setting: the value for `Cc1nc(NCC(C)(C)C)nc(N[C@@H]2C[C@H](CO)[C@@H](O)[C@H]2O)c1-c1nc2ccccc2s1` [Example 437] was less than 0.5 µM; that for `Cc1cc2cc(-c3c(Cl)nc(NCC(F)(F)F)nc3N[C@@H]3C[C@H](CO)[C@@H](O)[C@H]3O)oc2c(C)n1` [Example 456] was less than 0.5 µM; that for `Cc1nc(NCc2ccsc2)nc(N[C@@H]2C[C@H](CO)[C@@H](O)[C@H]2O)c1-c1nc2ccccc2s1` [Example 331] was less than 0.5 µM. For the molecule `Cc1ccccc1CNc1nc(C)c(-c2nc3ccccc3s2)c(N[C@@H]2C[C@H](CO)[C@@H](O)[C@H]2O)n1` [Example 488], the 90% effect concentration (EC90) is less than 0.5 µM. As to `CSc1nc(C)c(-c2nc3ccccc3s2)c(N[C@@H]2C[C@H](CO)[C@@H](O)[C@H]2O)n1` [Example 326], the EC90 is 0.5 to 5 µM. Turning to `Cc1nc(NCc2ccccn2)nc(N[C@@H]2C[C@H](CO)[C@H]3OC(C)(C)O[C@H]32)c1-c1nc2ccccc2s1` [Example 462], the EC90 is 0.5 to 5 µM.

Still in this experiment, the particulars now being: Hepatitis C virus, 72 h, HCV replicon cells, replicon RNA level by real time PCR (Taqman), harvested on day 3; calculated EC90 reported as range class; read-out: EC90 (μM) range.
As for `COc1cc(CNc2nc(C)c(-c3nc4ccccc4s3)c(N[C@@H]3CC[C@@H](O)[C@H]3O)n2)cc(OC)c1` [Example 1206], the EC90 was 0.5 to 5 µM. Still for that read-out and setting: as for `COc1nc(C)cc2cc(-c3c(C)nc(NCC4CC4)nc3N[C@@H]3C[C@H](CO)[C@@H](O)[C@H]3O)oc12` [Example 1239], the figure is 0.5 to 5 µM; as for `Cc1nc(NCc2ccccc2)nc(N[C@@H]2C[C@H](CO)[C@@H](O)[C@H]2O)c1-c1nc2cnccc2s1` [Example 540], less than 0.5 µM. Still for that read-out and setting: as for `CCOc1nc(C)cc2cc(-c3c(C)nc(NCc4cc(OC)cc(OC)c4)nc3N[C@@H]3C[C@H](CO)[C@@H](O)[C@H]3O)oc12` [Example 1248], the figure is 0.5 to 5 µM. Still for that read-out and setting: as for `Cc1nc(NCc2cccs2)nc(N[C@@H]2CC[C@@H](O)[C@H]2O)c1-c1nc2cnccc2s1` [Example 1214], the figure is less than 0.5 µM; as for `COc1cc2cc(-c3c(C)nc(NCC4CC4)nc3N[C@@H]3C[C@H](CO)[C@@H](O)[C@H]3O)oc2c(OC)n1` [Example 1127], less than 0.5 µM; as for `COC(=O)c1cccc(CNc2nc(C)c(-c3nc4ccccc4s3)c(N[C@@H]3C[C@H](CO)[C@@H](O)[C@H]3O)n2)c1` [Example 1218], 0.5 to 5 µM.

Staying with this experiment, now noted: Hepatitis C virus, 72 h, HCV replicon cells, replicon RNA level by real time PCR, harvested day 3; read-out: EC90 (μM) range.
For the molecule `Cc1nc(NCc2cc3cn[nH]c3cc2F)nc(N[C@@H]2C[C@H](CO)[C@@H](O)[C@H]2O)c1-c1nc2ccccc2s1` [Example 1909], the 90% effect concentration (EC90) is less than 0.5 µM. The same measure, in the same setting: as for `Cc1nc(N[C@H](C)C2CC2)nc(N[C@@H]2CC[C@@H](O)[C@@]2(C)O)c1-c1nc2c(C)nccc2s1` [Example 1817], the figure is less than 0.5 µM; as for `Cc1nc(N[C@H](C)c2ccc(OC(F)(F)F)cc2)nc(N[C@@H]2C[C@H](C(C)O)[C@@H](O)[C@H]2O)c1-c1nc2ccccc2s1` (single isomer, unassigned) [Example 1645], 0.5 to 5 µM; as for `Cc1nc(NCC(F)(F)F)nc(N[C@@H]2C[C@H](CN)[C@@H](O)[C@H]2O)c1-c1nc2ccccc2s1` [Example 1519], 0.5 to 5 µM. With `C=CCNc1nc(C)c(C2=NC3=C=CC=CC3S2)c(N[C@@H]2C[C@H](CO)[C@@H](O)[C@H]2O)n1` (stereo partly drawn) [Example 1906], the EC90 was 0.5 to 5 µM. For the molecule `Cc1nc(NCc2ccc(F)cc2F)nc(N[C@@H]2CC[C@@H](O)[C@@]2(C)O)c1-c1nc2cnccc2s1` [Example 1821], the concentration for an effect of 90% (EC90) was less than 0.5 µM. Same read-out and setting: the value for `CC(=O)NC[C@H]1C[C@@H](Nc2nc(NCC(F)(F)F)nc(C)c2-c2nc3ccccc3s2)[C@H](O)[C@@H]1O` [Example 1506] was 0.5 to 5 µM. With `COc1cc(CNc2nc(C)c(-c3nc4ccccc4s3)c(N[C@H]3C[C@@H](CO)[C@H](O)[C@@H]3O)n2)cc(OC)c1` [Example 1501], the EC90 fell in the range of 0.5 to 5 µM.

Take `Cc1nc(NCC(F)(F)F)nc(N[C@@H]2C[C@H](CN3CCOC3=O)[C@@H](O)[C@H]2O)c1-c1nc2ccccc2s1` [Example 1400]: the EC90 was less than 0.5 µM.
